From patent publication EP0363275A1, “Low molecular weight vectors specific for sugar receptors, their conjugates and processes for their preparation” (IRE-CELLTARG S.A., priority 1988, dated 1990)
Values joined by “and” are separate entries in the source; they are usually repeats but may differ in a detail not shown here. Equal entries are not always repeated. “Also recorded” adds a separate entry of the source.

Legend:
[1] = biological target: T1, récepteur à asialoglycoprotéine des hépatocytes (Rattus norvegicus, UniProt P02706+P08290); assay: Competition with ¹²⁵I HSA gal for binding to cultured hepatocytes at 4°C; conditions: for affinité pour le récepteur: cultured rat hepatocytes
T1 construct: le récepteur à galactoses présent à la membrane sinusoïdale des hépatocytes; endogenous in cells; host or cells: primary rat hepatocytes, isolated and cultured 16 h
T1 sequence (P02706 1-284): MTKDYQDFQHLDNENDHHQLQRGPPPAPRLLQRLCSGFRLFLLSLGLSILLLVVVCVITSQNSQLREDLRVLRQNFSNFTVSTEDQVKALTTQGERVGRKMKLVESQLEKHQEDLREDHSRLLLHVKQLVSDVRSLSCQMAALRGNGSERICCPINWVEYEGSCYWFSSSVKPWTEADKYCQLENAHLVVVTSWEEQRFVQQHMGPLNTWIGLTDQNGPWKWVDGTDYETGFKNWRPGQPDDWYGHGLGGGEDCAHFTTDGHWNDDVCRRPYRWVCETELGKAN
T1 sequence (P08290 1-301): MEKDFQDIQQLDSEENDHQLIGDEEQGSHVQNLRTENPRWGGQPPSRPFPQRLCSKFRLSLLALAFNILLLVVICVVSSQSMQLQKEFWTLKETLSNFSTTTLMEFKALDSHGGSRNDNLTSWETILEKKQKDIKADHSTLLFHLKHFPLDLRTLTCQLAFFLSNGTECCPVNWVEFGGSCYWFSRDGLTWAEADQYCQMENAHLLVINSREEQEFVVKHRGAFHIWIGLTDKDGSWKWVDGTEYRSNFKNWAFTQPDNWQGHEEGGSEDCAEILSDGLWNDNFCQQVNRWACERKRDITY
Procedure: D'autres caractéristiques et avantages de la présente invention apparaîtront à la lumière des exemples qui vont suivre. • - La figure 1 : Expériences de compétition entre l'HSA gal marqué à l'iode-125 et différentes concentrations molaires en HSA gal non radioactives (●) ou en composés glycosylés (mono O bi □ triantenne ▲ ) non radioactifs. Les cellules mises en culture depuis 16 h. sont incubées à 4°C pendant 4 h. en présence de 1 ml de milieu contenant 50 ng d'¹²⁵I HSA gal et les différentes concentrations en produits non radioactifs. Après l'incubation, les cellules sont lavées et la radioactivité qui leur est associée, mesurée. Les résultats sont exprimés en pourcentage d'¹²⁵I HSA gal qui reste associé aux cellules en fonction du logarithme de la concentration molaire en compétiteur. • - La figure 2 : Expériences de compétiton entre l'HSA gal marqué à l'iode-125 et différentes concentrations molaires en galactoses d'HSA gal ou de composés glycosylés (mono O bi □ et triantenne ▲ )non radioactifs. Les cellules sont traitées comme décrit dans la figure 1 et les résultats sont exprimés en pourcentage d'[…] HSA gal qui reste associé aux cellules en fonction du logarithme de la concentration molaire en galactose du compétiteur. • - La figure 3 : Distribution tissulaire de la triantenne marquée au tritium. Différentes concentrations en triantenne ³H sont administrées par voie intraveineuse à des souris OF₁. Trois minutes après l'injection, les animaux sont sacrifiés. Le sang et les différentes organes sont prélevés, homogénéisés et la radioactivité qui leur est associée, mesurée. Les résultats sont exprimés en pourcentage de la dose totale injectée et représentent la moyenne + déviation standard de 3 expériences. • - La figure 4 : Distribution tissulaire de la triantenne marquée au tritium. Des souris ont reçu par voie i.v. différentes concentrations de triantenne ³H. Les animaux sont sacrifiés 3 min. après l'injection. Le sang et les différents organes sont prélevés, homogénéisés et la radioactivité qui leur est associée, mesurée. Les résultats sont présentés en pourcentage de la dose injectée par gr. de tissu et représentent la moyenne + déviation standard de 3 expériences. • - La figure 5 : Capture hépatique de la triantenne marquée au tritium. Différentes concentrations en triantenne ³H sont injectées par voie i.v. à des souris OF₁. La radioactivité associée au foie est mesurée 3 min. après l'injection. Les valeurs sont exprimées en ng de galactose associés au foie en fonction des ng de galactoses injectés. • - La figure 6 : Distribution tissulaire de la triantenne marquée au tritium (a.) ou au technetium (b.). Une concentration de 100 µg en galactoses de triantenne radioactive est injectée par voie i.v. à des souris OF₁. Les animaux sont sacrifiés 3 min. après l'injection. Le sang et les différents organes sont prélevés, homogénéisés et la radioactivité qui leur est associée, mesurée. Les résultats sont exprimés en pourcentage de la dose totale administrée (case supérieure) ou en pourcentage de la dose totale injectée par gr. de tissu (case inférieure). Ils représentent la moyenne + déviation standard de 3 expériences.
L'étude in vitro des vecteurs hépatotropes de faible poids moléculaire a été effectuée sur des hépatocytes de rats isolés et mis en culture.
L'affinité relative a été déterminée par une expérience de compétition entre le vecteur et une néoglycoprotéine connue pour sa haute affinité pour les récepteurs à galactoses, soit l'albumine humaine
Afin de déterminer si les hépathocytes fixent spécifiquement les différents dérivés glycosylés (monoantenne = 3 galactoses terminaux; biantenne = 6 galactoses terminaux; triantenne = 9 galactoses terminaux), des expériences de compétition pour le récepteur à asialoglycoprotéines entre l'HSA gal et les différents composés ont été réalisées. […]

[2] = system: malaria murine; assay: Therapeutic activity of amino-acid derivatives of primaquine in the murine malaria model; assay type: in vivo
[3] = set-up: species or system souris OF₁; conditions: in vivo, iv
Procedure: D'autres caractéristiques et avantages de la présente invention apparaîtront à la lumière des exemples qui vont suivre. • - La figure 1 : Expériences de compétition entre l'HSA gal marqué à l'iode-125 et différentes concentrations molaires en HSA gal non radioactives (●) ou en composés glycosylés (mono O bi □ triantenne ▲ ) non radioactifs. Les cellules mises en culture depuis 16 h. sont incubées à 4°C pendant 4 h. en présence de 1 ml de milieu contenant 50 ng d'¹²⁵I HSA gal et les différentes concentrations en produits non radioactifs. Après l'incubation, les cellules sont lavées et la radioactivité qui leur est associée, mesurée. Les résultats sont exprimés en pourcentage d'¹²⁵I HSA gal qui reste associé aux cellules en fonction du logarithme de la concentration molaire en compétiteur. • - La figure 2 : Expériences de compétiton entre l'HSA gal marqué à l'iode-125 et différentes concentrations molaires en galactoses d'HSA gal ou de composés glycosylés (mono O bi □ et triantenne ▲ )non radioactifs. Les cellules sont traitées comme décrit dans la figure 1 et les résultats sont exprimés en pourcentage d'[…] HSA gal qui reste associé aux cellules en fonction du logarithme de la concentration molaire en galactose du compétiteur. • - La figure 3 : Distribution tissulaire de la triantenne marquée au tritium. […]

[4] = system: hépatocytes; assay: Uptake (internalisation) by hepatocytes at 37°C; assay type: cell-based, rat; conditions: short periods (120 min)
Procedure: A 37°C, les récepteurs intériorisent efficacement la triantenne. Par comparaison avec la capture de la macromolécule, ASH gal, les hépatocytes incubés pendant de courtes périodes (120 min), intériorisent jusqu'à 4 fois plus de molécules de triantenne.
Ce fait pourrait s'expliquer par la formation préférentielle de complexes ligand-récepteur à vitesse de dissociation lente, dans le cas de la triantenne.

[5] = Blood disappearance and tissue distribution after i.v. administration (Example 7); assay type: in vivo, souris
Source text: In vivo, on a étudié la disparition sanguine ainsi que la distribution tissulaire de la triantenne suite à son administration intra-veineuse à des souris.

[6] = biological target: T2, récepteur d'Ashwell (Rattus norvegicus, UniProt P02706+P08290); assay: Binding sites and Kd of triantenne on hepatocytes; conditions: number of sites
T2 construct: endogenous in cells
T2 sequence (P02706 1-284): T1 sequence (P02706 1-284)
T2 sequence (P08290 1-301): T1 sequence (P08290 1-301)

[7] = result in words, hepatocytes, 4°C
[8] = among amino-acid derivatives of primaquine

Cbz-Asp bis(-6-amino Hex-Tris tri Gal) [Biantenne]
affinité pour le récepteur ([1]; result in words): affinité importante
compétition avec l'HSA gal iodiné pour le récepteur à asialoglycoprotéine [1, 7]: induit une diminution de la radioactivité associée aux cellules; also recorded: entre effectivement en compétition

Cbz-Asp-(6-amino Hex-Tris tri Gal) [Monoantenne]
B=Ic50 (molaire en gal.) ([1]; molar concentration in galactoses of the competitor inhibiting 50 % of ¹²⁵I HSA gal binding, hepatocytes, 4°C, 4 h): non déterminable
A=Ic 50 (molaire) ([1]; molar concentration of competitor inhibiting 50 % of ¹²⁵I HSA gal binding, hepatocytes, 4°C, 4 h): non déterminable
affinité pour le récepteur ([1]; result in words): ne présentent d'affinité significative
compétition avec l'HSA gal iodiné pour le récepteur à asialoglycoprotéine [1, 7]: n'entre pas en compétition; also recorded: se fixe aspécifiquement sur les cellules

COc1cc(NC(C)CCCNC(=O)C(N)CCCCN)c2ncccc2c1 [L-lysyl-Pq]
activité [2, 8]: meilleure activité
toxicité ([2]; compared with primaquine): toxicité plus élevée que celle de la primaquine

COc1cc(NC(C)CCCNC(=O)[C@@H](N)CCC(=O)O)c2ncccc2c1 (stereo partly drawn) [L-glutamyl-Pq]
index thérapeutique [2, 8]: meilleur index thérapeutique

Cbz-Asp-Asp-tri(-6-amino Hex-Tris tri Gal) [Triantenne]
matériel radioactif associé au sang ou au plasma [3]: ≤ 10 % de la dose initiale administrée
radioactivité associée aux autres organes (rate, coeur, poumons, muscles, estomac, duodenum, colon, rectum) [3]: < 5%
affinité par rapport à celle de la biantenne ([1]; ratio triantenne / biantenne): ~100 fois and 60 fois
affinité exprimée en concentration molaire en galactoses, par rapport à l'HSA gal ([1]; result in words): du même ordre de grandeur
affinité pour le récepteur ([1]; result in words): la plus haute affinité pour le récepteur; also recorded: affinité importante
compétition avec l'HSA gal iodiné pour le récepteur à asialoglycoprotéine [1, 7]: induit une diminution de la radioactivité associée aux cellules
molécules intériorisées par rapport à l'ASH gal [4]: ≤ 4 fois
quantité accumulée par les hépatocytes ([5]; 5 min after injection): > 40 % de la quantité administrée
quantité interagissant avec les autres organes ([5]; 5 min after injection): < 2%
rapport des concentrations spécifiques du foie et des reins ([5]; after 10 min): 10
molécules captées par le foie par rapport à l'ASH gal ([5]; comparable number of molecules, after 5 min): ~2 fois
disparition sanguine ([5]; result in words): éliminée très rapidement de la circulation sanguine
rapport des concentrations spécifiques du foie et des reins ([5]; start value): 1.5
sites de haute affinité [6]: 56370 sites
sites de plus faible affinité [6]: 490500 sites
